The supplement of paper PMC10307832

Experiments:
Assay in all cases: relative viability (nuclei count vs DMSO), 5 days (fraction); higher = more cells survive
[1] = compound: CC1=CC=C(C=C1)C(=O)CN2C3=C(CCCC3)SC2=N [Pifithrin_alpha] + Cc1nc(Nc2ncc(C(=O)Nc3c(C)cccc3Cl)s2)cc(N2CCN(CCO)CC2)n1 [Dasatinib] (partner 0.075 µM)
Outline: (§1)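 The day after seeding in 1536-well plates, lung cancer cell lines were treated by pin tool with a single drug, or with a fixed anchor-drug dose together with five library-drug doses (not always all listed) in √10 steps. After 5 days, a combined fix-and-stain solution (final 0.05% Triton X-100, 1% formaldehyde, 1 ug/ml Hoechst) was added. Nuclei counted on 4× images gave relative viability as treated counts over vehicle counts, reported as the median of duplicate plates.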

Axitinib + Pictilisib = compound: CNC(=O)c1ccccc1Sc1ccc2c(/C=C/c3ccccn3)n[nH]c2c1 [Axitinib] + CS(=O)(=O)N1CCN(Cc2cc3nc(-c4cccc5[nH]ncc45)nc(N4CCOCC4)c3s2)CC1 [Pictilisib] (partner 1 µM)
Outline: as §1

Bemcentinib + Luminespib = compound: Nc1nc(Nc2ccc3c(c2)CC[C@@H](N2CCCC2)CC3)nn1-c1cc2c(nn1)-c1ccccc1CCC2 [Bemcentinib] + CCNC(=O)c1noc(-c2cc(C(C)C)c(O)cc2O)c1-c1ccc(CN2CCOCC2)cc1 [Luminespib] (partner 0.01 µM)
Outline: as §1

Bemcentinib + Lapatinib = compound: Nc1nc(Nc2ccc3c(c2)CC[C@@H](N2CCCC2)CC3)nn1-c1cc2c(nn1)-c1ccccc1CCC2 [Bemcentinib] + CS(=O)(=O)CCNCc1ccc(-c2ccc3ncnc(Nc4ccc(OCc5cccc(F)c5)c(Cl)c4)c3c2)o1 [Lapatinib] (partner 2 µM)
Outline: as §1

Cell Line | relative viability ([1]; first compound 1 µM) | relative viability ([1]; first compound 3.162 µM) | relative viability ([1]; first compound 10 µM) | relative viability ([1]; first compound 31.62 µM) | relative viability ([1]; first compound 100 µM) | relative viability (Axitinib + Pictilisib; first compound 0.005 µM) | relative viability (Axitinib + Pictilisib; first compound 0.01581 µM) | relative viability (Axitinib + Pictilisib; first compound 0.05 µM) | relative viability (Axitinib + Pictilisib; first compound 0.1581 µM) | relative viability (Axitinib + Pictilisib; first compound 0.5 µM) | relative viability (Bemcentinib + Luminespib; first compound 0.04 µM) | relative viability (Bemcentinib + Luminespib; first compound 0.1265 µM) | relative viability (Bemcentinib + Luminespib; first compound 0.4 µM) | relative viability (Bemcentinib + Luminespib; first compound 1.265 µM) | relative viability (Bemcentinib + Luminespib; first compound 4 µM) | relative viability (Bemcentinib + Lapatinib; first compound 0.1265 µM) | relative viability (Bemcentinib + Lapatinib; first compound 0.4 µM) | relative viability (Bemcentinib + Lapatinib; first compound 1.265 µM) | relative viability (Bemcentinib + Lapatinib; first compound 4 µM) | relative viability (Bemcentinib + Lapatinib; first compound 0.04 µM)
A-427 | 0.824 | 0.635 | 0.599 | 0.513 | 0.702 | 0.672 | 0.496 | 0.77 | 0.705 | 0.679 | 1.04 | 1.09 | 0.934 | 0.822 | 0.737 | 0.959 | 1.06 | 1.09 | 1.03 | –
NCI-H2126 | 0.392 | 0.48 | 0.431 | 0.451 | 0.391 | 0.457 | 0.475 | 0.504 | 0.522 | 0.499 | 0.893 | 0.973 | 0.81 | 0.975 | 0.939 | 0.768 | 0.8 | 0.814 | 0.842 | 0.791
NCI-H647 | 0.218 | 0.17 | 0.141 | 0.153 | 0.153 | 0.439 | 0.416 | 0.425 | 0.478 | 0.399 | 0.142 | 0.157 | 0.108 | 0.143 | 0.136 | 1.25 | 1.1 | 0.978 | 1.22 | 1.2
ChaGo-K-1 | 0.641 | 0.594 | 0.614 | 0.509 | 0.497 | 0.725 | 0.562 | 0.878 | 0.643 | 0.541 | 0.573 | 0.542 | 0.701 | 0.843 | 0.587 | – | – | – | – | –
UMC-11 | 0.465 | 0.656 | 0.514 | 0.436 | 0.638 | 0.818 | 0.82 | 0.857 | 0.835 | 0.627 | 0.964 | 1.06 | 1.1 | 0.967 | 1.04 | 1.16 | 1.06 | 0.868 | 0.975 | 0.88
LOU-NH91 | 0.371 | 0.501 | 0.535 | 0.475 | 0.493 | 0.528 | 0.529 | 0.557 | 0.544 | 0.52 | 0.293 | 0.414 | 0.354 | 0.303 | 0.324 | 0.79 | 0.789 | 0.742 | 0.756 | 0.714
HCC-44 | – | – | – | – | – | 0.56 | 0.734 | 0.682 | 0.695 | 0.546 | 1.05 | 1.4 | 1.02 | 1.06 | 1.05 | 1.07 | 1.14 | 1.1 | 1.06 | 1.06
HCC-15 | 0.634 | 0.61 | 0.485 | 0.275 | 0.264 | 0.696 | 0.828 | 0.761 | 0.736 | 0.737 | 0.326 | 0.485 | 0.293 | 0.253 | 0.235 | 0.954 | 0.884 | 0.895 | 0.903 | 0.883
